Patent US10654847B2, “Substituted 2-(4-heterocyclylbenzyl)isoindolin-1-one analogs as positive allosteric modulators of the muscarinic acetylcholine receptor M1” (Vanderbilt University, priority 2011, dated 2020)

Biological target: T1, mAChR M1 (UniProt P11229)
T1 sequence (P11229 1-460): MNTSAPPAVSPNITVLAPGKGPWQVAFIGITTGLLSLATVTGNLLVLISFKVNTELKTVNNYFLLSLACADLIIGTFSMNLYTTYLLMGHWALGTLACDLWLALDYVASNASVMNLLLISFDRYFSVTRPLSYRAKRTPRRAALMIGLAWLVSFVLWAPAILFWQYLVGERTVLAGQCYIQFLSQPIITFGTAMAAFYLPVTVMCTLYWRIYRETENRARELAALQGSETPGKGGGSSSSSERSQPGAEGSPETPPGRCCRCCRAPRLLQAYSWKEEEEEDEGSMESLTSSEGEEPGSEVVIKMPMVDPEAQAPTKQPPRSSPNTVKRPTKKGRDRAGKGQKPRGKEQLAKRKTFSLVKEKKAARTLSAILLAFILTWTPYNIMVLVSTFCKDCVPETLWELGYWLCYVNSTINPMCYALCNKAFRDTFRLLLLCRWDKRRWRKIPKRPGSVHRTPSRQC
Assay: mAChR M1 cell-based functional assay (calcium mobilization, potentiation of EC20 acetylcholine response)
Conditions: for Emax (%): % ACh maximum at 30 μM, mAChR M1-expressing CHO-K1 cells, calcium flux; for pEC50 / EC50: positive allosteric modulation of EC20 ACh response, mAChR M1 CHO-K1 cells; for pEC50: <5 estimated where no plateau; for EC50: >10 μM estimated where no plateau, read-out: EC50
Method: Chinese hamster ovary (CHO-K1) cells stably expressing rat (r)M1 were purchased from the American Type Culture Collection and cultured according to their indicated protocol. […] To make stable rM2, hM2, rM3, hM4, and rM4 cell lines for use in calcium mobilization assays, these cells also were stably transfected with a chimeric G-protein (Gqi5) (provided by B. R. Conklin, University of California, San Francisco) using Lipofectamine 2000. rM1, hM1, rM3, hM3, rM5, and hM5 cells were grown in Ham's F-12 medium containing 10% heat-inactivated fetal bovine serum (FBS), 20 mM HEPES, and 50 μg/mL G418 sulfate. rM2-Gqi5, hM2-Gqi5, and hM4-Gqi5 cells were grown in the same medium also containing 500 μg/mL Hygromycin B. Stable rM4-Gqi5 cells were grown in DMEM containing 10% heat-inactivated FBS, 20 mM HEPES, 400 μg/mL G418 sulfate, and 500 μg/mL Hygromycin B.
For high throughput measurement of agonist-evoked increases in intracellular calcium, CHO-K1 cells stably expressing muscarinic receptors were plated in growth medium lacking G418 and hygromycin at 15,000 cells/20 μL/well in Greiner 384-well black-walled, tissue culture (TC)-treated, clear-bottom plates (VWR). Cells were incubated overnight at 37° C. and 5% CO2. […] Compound master plates were formatted in an 11 point CRC format (1:3 dilutions) in 100% DMSO with a starting concentration of 10 mM using the BRAVO liquid handler (Agilent). Test compound CRCs were then transferred to daughter plates (240 nL) using the Echo acoustic plate reformatter (Labcyte, Sunnyvale, Calif.) and then diluted into assay buffer (40 μL) to a 2× stock using a Thermo Fisher Combi (Thermo Fisher Scientific, Waltham, Mass.).
Calcium flux was measured using the Functional Drug Screening System (FDSS) 6000 (Hamamatsu Corporation, Tokyo, Japan) as an increase in the fluorescent static ratio. Compounds were applied to cells (20 μL, 2×) using the automated system of the FDSS 6000 at 4 s into the 300 s protocol and the data were collected at 1 Hz. […] Agonist activity was analyzed as a concentration-dependent increase in calcium mobilization upon compound addition. Positive allosteric modulator activity was analyzed as a concentration-dependent increase in the EC20 acetylcholine response. Antagonist activity was analyzed as a concentration-dependent decrease in the EC80 acetylcholine response. Concentration-response curves were generated using a four-parameter logistical equation in XLfit curve fitting software (IDBS, Bridgewater, N.J.) for Excel (Microsoft, Redmond, Wash.) or Prism (GraphPad Software, Inc., San Diego, Calif.).
The above described assay was also operated in a second mode where an appropriate fixed concentration of the present compounds were added to the cells after establishment of a fluorescence baseline for about 3 seconds, and the response in cells was measured. […] Data were reduced as described above and the EC50 values for the agonist in the presence of test compound were determined by nonlinear curve fitting. A decrease in the EC50 value of the agonist with increasing concentrations of the present compounds (a leftward shift of the agonist concentration-response curve) is an indication of the degree of muscarinic positive allosteric modulation at a given concentration of the present compound. An increase in the EC50 value of the agonist with increasing concentrations of the present compounds (a rightward shift of the agonist concentration response curve) is an indication of the degree of muscarinic antagonism at a given concentration of the present compound. The second mode also indicates whether the present compounds also affect the maximum response of the muscarinic receptor to agonists.
The calcium mobilization assay was also used to determine “efficacy”.

Emax (%) | pEC50 | EC50 [nM] | Structure (SMILES)
58 | 6.25 | 562 | O=C1Cc2cc(-c3ccc(CN4Cc5ncccc5C4=O)c(F)c3)ccc2N1 [Example B86]
68 | 5.22 | 6030 | Cn1cc2c(-c3cc(F)c(CN4Cc5ncccc5C4=O)cc3F)cccc2n1 [Example B87]
63 | <5.00 | > 10000 | O=C1c2cccnc2CN1Cc1c(F)cc(-c2cnc3ccccn23)cc1F [Example B88]
48 | <5.00 | > 10000 | O=C1c2cccnc2CN1Cc1c(F)cc(-c2cccc3nccn23)cc1F [Example B89]
53 | <5.00 | > 10000 | O=C1c2cccnc2CN1Cc1ccc(-c2cn3ccnc3cn2)cc1F [Example B90]
67 | 6.51 | 309 | O=C1Cc2cc(-c3cc(F)c(CN4Cc5ncccc5C4=O)c(F)c3)ccc2N1 [Example B91]
62 | 6.06 | 871 | O=C1c2cccnc2CN1Cc1ccc(-c2ccc3cncn3c2)cc1F [Example B92]
65 | 5.53 | 2950 | O=C1c2cccnc2CN1Cc1ccc(-c2cnc3ccccn23)cc1F [Example B93]
36 | 6.71 | 195 | O=C1c2cccnc2CN1Cc1c(F)cc(-c2ccc3c(c2)OCCO3)cc1F [Example B94]
53 | <5.00 | > 10000 | O=C1c2cccnc2CN1Cc1c(F)cc(-c2cccc3ncccc23)cc1F [Example B95]
54 | 6.56 | 275 | O=C1c2cccnc2CN1Cc1c(F)cc(-c2ccc3ncccc3c2)cc1F [Example B96]
62 | 6.23 | 589 | O=C1c2cccnc2CN1Cc1c(F)cc(-c2ccc3cnccc3c2)cc1F [Example B97]
49 | 6.68 | 209 | Cc1n[nH]c2cc(-c3cc(F)c(CN4Cc5ncccc5C4=O)c(F)c3)ccc12 [Example B98]
41 | <5.00 | > 10000 | O=C1c2cccnc2CN1Cc1c(F)cc(-c2cccc3cnccc23)cc1F [Example B99]
71 | 5.88 | 1320 | O=C1c2cccnc2CN1Cc1c(F)cc(-c2ccc3cncn3c2)cc1F [Example B100]
48 | <5.00 | > 10000 | O=C1c2cccnc2CN1Cc1c(F)cc(-c2ccc3c(c2)C2(OCCO2)C(=O)N3)cc1F [Example B101]
68 | 6.91 | 123 | Cc1n[nH]c2ccc(-c3cc(F)c(CN4Cc5ncccc5C4=O)c(F)c3)cc12 [Example B102]
56 | 5.83 | 1480 | CN1CCc2cc(-c3cc(F)c(CN4Cc5ncccc5C4=O)c(F)c3)ccc21 [Example B103]
70 | 5.82 | 1510 | COc1cc(-c2cccc3nn(C)cc23)ccc1CN1Cc2ncccc2C1=O [Example B104]
69 | 6.39 | 407 | Cn1cc2cc(-c3cc(F)c(CN4Cc5ncccc5C4=O)cc3F)ccc2n1 [Example B105]

Emax (%) | pEC50 | EC50 [nM] | Structure (SMILES)
41 | 5.42 | 3800 | Cn1cc2cc(-c3cccc(CN4Cc5ncccc5C4=O)c3F)ccc2n1 [Example B106]
56 | 5.76 | 1740 | CN1Cc2ccc(-c3cc(F)c(CN4Cc5ncccc5C4=O)c(F)c3)cc2C1 [Example B107]
56 | 5.07 | 8510 | Cn1cc2ccc(-c3ccc(F)c(CN4Cc5ncccc5C4=O)c3)cc2n1 [Example B108]
36 | 5.14 | 7240 | Cn1cc2c(-c3cccc(CN4Cc5ncccc5C4=O)c3F)cccc2n1 [Example B109]
61 | 5.71 | 1950 | Cn1cc2c(-c3ccc(F)c(CN4Cc5ncccc5C4=O)c3)cccc2n1 [Example B110]
42 | 5.63 | 2340 | Cn1cc2cc(-c3ccc(F)c(CN4Cc5ncccc5C4=O)c3)ccc2n1 [Example B111]
32 | <5.00 | > 10000 | Cn1cc2c(n1)CCN(c1ccc(CN3Cc4ncccc4C3=O)c(F)c1)C2 [Example B112]
<30 | <5.00 | > 10000 | CC1c2ccccc2C(=O)N1Cc1ccc(-c2cnn(C)c2)cc1F (stereo not drawn) [Example B113]
<30 | <5.00 | > 10000 | Cn1ncc2cc(-c3ccc(CN4Cc5ccccc5C4=O)c(F)c3)ccc21 [Example B114]
<30 | <5.00 | > 10000 | O=S1(=O)c2ccccc2CN1Cc1ccc(-n2cccn2)cc1 [Example B115]
<30 | <5.00 | > 10000 | Cc1nc(-c2ccc(CN3Cc4ccccc4S3(=O)=O)cc2)cs1 [Example B116]
<30 | <5.00 | > 10000 | O=S1(=O)c2ccccc2CN1Cc1ccc(-c2cnns2)cc1 [Example B117]
<30 | <5.00 | > 10000 | Cc1noc(-c2ccc(CN3Cc4ccccc4S3(=O)=O)cc2)n1 [Example B118]
<30 | <5.00 | > 10000 | Cc1nc(-c2ccc(CN3Cc4ccccc4S3(=O)=O)cc2)no1 [Example B119]
<30 | <5.00 | > 10000 | O=S1(=O)c2ccccc2CN1Cc1ccc(-c2coc(-c3ccccc3)n2)cc1 [Example B120]
<30 | <5.00 | > 10000 | O=C1c2ccccc2CN1Cc1ccc(-c2ccc3cc[nH]c3c2)cc1F [Example B121]
<30 | <5.00 | > 10000 | CSc1ncc(-c2ccc(CN3Cc4ccccc4C3=O)c(F)c2)cn1 [Example B122]
<30 | <5.00 | > 10000 | Cc1nnc(-c2ccc(CN3Cc4ccccc4S3(=O)=O)cc2)o1 [Example B123]
<30 | <5.00 | > 10000 | O=S1(=O)c2ccccc2CN1Cc1ccc(Oc2ccccc2)cc1 [Example B124]
<30 | <5.00 | > 10000 | O=S1(=O)c2ccccc2CN1Cc1ccc(-n2cccc2)cc1 [Example B125]
